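Values below derive from 48-hour exposures of cells grown in 96-well plates, with endpoints linearly interpolated between the two concentrations bracketing the appropriate inhibition level. TGI: total growth inhibition.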
Tests used:
Assay in all cases: inhibition of tumour cell growth, NCI panel, 48 h
786-0 renal = test system: 786-0 renal
A549 NSCLC = test system: A549 NSCLC
ACHN renal = test system: ACHN renal
CCRF-CEM leukemia = test system: CCRF-CEM leukemia
DLD-1 colon = test system: DLD-1 colon
DMS 114 small cell lung = test system: DMS 114 small cell lung
DMS 273 small cell lung = test system: DMS 273 small cell lung
HCT-116 colon = test system: HCT-116 colon
HCT-15 colon = test system: HCT-15 colon
HL-60(TB) leukemia = test system: HL-60(TB) leukemia
HOP-18 NSCLC = test system: HOP-18 NSCLC
HT29 colon = test system: HT29 colon
K-562 leukemia = test system: K-562 leukemia
KM12 colon = test system: KM12 colon
LOX IMVI melanoma = test system: LOX IMVI melanoma
LXFL 529 NSCLC = test system: LXFL 529 NSCLC
M14 melanoma = test system: M14 melanoma
M19-MEL melanoma = test system: M19-MEL melanoma
MALME-3M melanoma = test system: MALME-3M melanoma
MOLT-4 leukemia = test system: MOLT-4 leukemia
NCI-H226 lung = test system: NCI-H226 lung
NCI-H23 lung = test system: NCI-H23 lung
NCI-H460 lung = test system: NCI-H460 lung
NCI-H522 lung = test system: NCI-H522 lung
OVCAR-3 ovarian = test system: OVCAR-3 ovarian
OVCAR-4 ovarian = test system: OVCAR-4 ovarian
OVCAR-8 ovarian = test system: OVCAR-8 ovarian
SF-268 CNS = test system: SF-268 CNS
SF-295 CNS = test system: SF-295 CNS
SF-539 CNS = test system: SF-539 CNS
SK-MEL-2 melanoma = test system: SK-MEL-2 melanoma
SK-MEL-28 melanoma = test system: SK-MEL-28 melanoma
SK-MEL-5 melanoma = test system: SK-MEL-5 melanoma
SK-OV-3 ovarian = test system: SK-OV-3 ovarian
SN12C renal = test system: SN12C renal
SNB-75 CNS = test system: SNB-75 CNS
SNB-78 CNS = test system: SNB-78 CNS
SW-620 colon = test system: SW-620 colon
TK-10 renal = test system: TK-10 renal
U251 CNS = test system: U251 CNS
UACC-257 melanoma = test system: UACC-257 melanoma
UACC-62 melanoma = test system: UACC-62 melanoma
UO-31 renal = test system: UO-31 renal
XF 498 CNS = test system: XF 498 CNS
A498 renal = test system: A498 renal
BT-549 breast = test system: BT-549 breast
CAKI-1 renal = test system: CAKI-1 renal
COLO 205 colon = test system: COLO 205 colon
DU-145 prostate = test system: DU-145 prostate
EKVX NSCLC = test system: EKVX NSCLC
HCC-2998 colon = test system: HCC-2998 colon
HOP-62 NSCLC = test system: HOP-62 NSCLC
HOP-92 NSCLC = test system: HOP-92 NSCLC
HS 578T breast = test system: HS 578T breast
IGROV1 ovarian = test system: IGROV1 ovarian
KM20L2 colon = test system: KM20L2 colon
MCF7 breast = test system: MCF7 breast
MDA-MB-231 breast = test system: MDA-MB-231 breast
MDA-MB-435 = test system: MDA-MB-435
MDA-N = test system: MDA-N
NCI/ADR-RES ovarian = test system: NCI/ADR-RES ovarian
OVCAR-5 ovarian = test system: OVCAR-5 ovarian
PC-3 prostate = test system: PC-3 prostate
RPMI-8226 leukemia = test system: RPMI-8226 leukemia
RXF 393 renal = test system: RXF 393 renal
SNB-19 CNS = test system: SNB-19 CNS
SR leukemia = test system: SR leukemia
T-47D breast = test system: T-47D breast

CC(Oc1ccc(OCC2CCCCC2)cc1)C(N)=O (stereo unspecified)
TGI (786-0 renal): > 100 µM | TGI (A549 NSCLC): > 100 µM | TGI (ACHN renal): > 100 µM | TGI (CCRF-CEM leukemia): > 100 µM | TGI (DLD-1 colon): > 100 µM | TGI (DMS 114 small cell lung): > 100 µM | TGI (DMS 273 small cell lung): > 100 µM | TGI (HCT-116 colon): > 100 µM | TGI (HCT-15 colon): > 100 µM | TGI (HL-60(TB) leukemia): > 100 µM | TGI (HOP-18 NSCLC): > 100 µM | TGI (HT29 colon): > 100 µM | TGI (K-562 leukemia): > 100 µM | TGI (KM12 colon): > 100 µM | TGI (LOX IMVI melanoma): > 100 µM | TGI (LXFL 529 NSCLC): > 100 µM | TGI (M14 melanoma): > 100 µM | TGI (M19-MEL melanoma): > 100 µM | TGI (MALME-3M melanoma): > 100 µM | TGI (MOLT-4 leukemia): > 100 µM | TGI (NCI-H226 lung): > 100 µM | TGI (NCI-H23 lung): > 100 µM | TGI (NCI-H460 lung): > 100 µM | TGI (NCI-H522 lung): > 100 µM | TGI (OVCAR-3 ovarian): > 100 µM | TGI (OVCAR-4 ovarian): > 100 µM | TGI (OVCAR-8 ovarian): > 100 µM | TGI (SF-268 CNS): > 100 µM | TGI (SF-295 CNS): > 100 µM | TGI (SF-539 CNS): > 100 µM | TGI (SK-MEL-2 melanoma): > 100 µM | TGI (SK-MEL-28 melanoma): > 100 µM | TGI (SK-MEL-5 melanoma): > 100 µM | TGI (SK-OV-3 ovarian): > 100 µM | TGI (SN12C renal): > 100 µM | TGI (SNB-75 CNS): > 100 µM | TGI (SNB-78 CNS): > 100 µM | TGI (SW-620 colon): > 100 µM | TGI (TK-10 renal): > 100 µM | TGI (U251 CNS): > 100 µM | TGI (UACC-257 melanoma): > 100 µM | TGI (UACC-62 melanoma): > 100 µM | TGI (UO-31 renal): > 100 µM | TGI (XF 498 CNS): > 100 µM

O=P(NC12CC3CC(CC(C3)C1)C2)(N1CC1)N1CC1
TGI (786-0 renal): > 100 µM | TGI (A498 renal): > 100 µM | TGI (A549 NSCLC): > 100 µM | TGI (ACHN renal): > 100 µM | TGI (BT-549 breast): > 100 µM | TGI (CAKI-1 renal): > 100 µM | TGI (CCRF-CEM leukemia): > 100 µM | TGI (COLO 205 colon): > 100 µM | TGI (DLD-1 colon): > 100 µM | TGI (DMS 114 small cell lung): > 100 µM | TGI (DMS 273 small cell lung): > 100 µM | TGI (DU-145 prostate): > 100 µM | TGI (EKVX NSCLC): > 100 µM | TGI (HCC-2998 colon): > 100 µM | TGI (HCT-116 colon): > 100 µM | TGI (HCT-15 colon): > 100 µM | TGI (HL-60(TB) leukemia): 98.9 µM | TGI (HOP-18 NSCLC): > 100 µM | TGI (HOP-62 NSCLC): > 100 µM | TGI (HOP-92 NSCLC): > 100 µM | TGI (HS 578T breast): > 100 µM | TGI (HT29 colon): > 100 µM | TGI (IGROV1 ovarian): > 100 µM | TGI (K-562 leukemia): > 100 µM | TGI (KM12 colon): > 100 µM | TGI (KM20L2 colon): > 100 µM | TGI (LOX IMVI melanoma): > 100 µM | TGI (LXFL 529 NSCLC): > 100 µM | TGI (M14 melanoma): > 100 µM | TGI (M19-MEL melanoma): > 100 µM | TGI (MALME-3M melanoma): > 100 µM | TGI (MCF7 breast): > 100 µM | TGI (MDA-MB-231 breast): > 100 µM | TGI (MDA-MB-435): > 100 µM | TGI (MDA-N): > 100 µM | TGI (MOLT-4 leukemia): > 43.2 µM | TGI (NCI-H226 lung): > 94.8 µM | TGI (NCI-H23 lung): > 63.8 µM | TGI (NCI-H460 lung): > 100 µM | TGI (NCI-H522 lung): > 100 µM | TGI (NCI/ADR-RES ovarian): > 100 µM | TGI (OVCAR-3 ovarian): > 100 µM | TGI (OVCAR-4 ovarian): > 100 µM | TGI (OVCAR-5 ovarian): > 100 µM | TGI (OVCAR-8 ovarian): > 100 µM | TGI (PC-3 prostate): > 100 µM | TGI (RPMI-8226 leukemia): > 100 µM | TGI (RXF 393 renal): 74.3 µM | TGI (SF-268 CNS): > 100 µM | TGI (SF-295 CNS): > 100 µM | TGI (SF-539 CNS): 75.5 µM | TGI (SK-MEL-2 melanoma): > 100 µM | TGI (SK-MEL-28 melanoma): > 100 µM | TGI (SK-MEL-5 melanoma): > 100 µM | TGI (SK-OV-3 ovarian): > 100 µM | TGI (SN12C renal): > 100 µM | TGI (SNB-19 CNS): > 100 µM | TGI (SNB-75 CNS): > 100 µM | TGI (SNB-78 CNS): > 100 µM | TGI (SR leukemia): > 91.4 µM | TGI (SW-620 colon): > 100 µM | TGI (T-47D breast): > 100 µM | TGI (TK-10 renal): > 100 µM | TGI (U251 CNS): > 100 µM | TGI (UACC-257 melanoma): > 100 µM | TGI (UACC-62 melanoma): > 72.2 µM | TGI (UO-31 renal): > 100 µM
